Results published in patent US10221177B2 (HYDRA BIOSCIENCES, INC., priority 2014, dated 2019).

Tests used:
[1] = tested on: formalin-induced pain behaviors in the rat; experiment: Formalin-induced pain test (formalin model), duration of pain behaviors; type: in vivo
Method: Exemplary compounds of the invention were tested in the formalin-induced pain test reported by Dubuisson et al., Pain 1977 December; 4(2):161-74 (incorporated herein by reference in its entirety). Briefly, dilute formalin (50 μL of 3% formalin) was injected into the plantar surface of the hind paw of a rat. […] The individual responsible for counting the pain behaviors in a particular study was blinded to the treatment groups.
The initial phase (Phase I: 0-5 min) is thought to have a significant component that is dependent upon direct activation of afferent fibers by formalin and functional TRPA1 (McNamara et al., 2007).
Investigators studied oral administration of compounds of the invention at the doses presented in Table 3 on pain behaviors in the formalin model in the rat. Compounds were formulated as solutions in water with various solvents and excipients including dimethyl sulfoxide (DMSO), polyethylene glycol (15)-hydroxystearate (Solutol®, Sigma-Aldrich), caprylocaproyl macrogol-8 glyceride (Labrasol®, Sigma-Aldrich), polysorbate-80 (Tween®-80, Sigma-Aldrich), and polyoxyl 35 castor oil (Cremophor® EL, BASF Corp.); or suspensions in methylcellulose as indicated in Table 3. Animals were dosed orally with the vehicle, or compounds of the invention one hour prior to intraplantar formalin. […] A decrease over Vehicle indicates a positive result. P values, when indicated, indicate significance compared Vehicle.

[2] = molecular target: human TRPA1 (Homo sapiens (Human), UniProt O75762); experiment: In vitro inhibition of human TRPA1, whole cell patch configuration; type: cell-based; settings: current activation 10 μM AITC, tested concentrations 320 pM to 3.2 μM, read-out: hTRPA1 IC50
Method in brief: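 Compound antagonism measured from voltage ramps (±100 or ±80 mV, 400 ms, every 4 s from −40 mV), analysed at −80 and 80 mV, or at constant −60 mV. HEPES-buffered NaCl bath, pH 7.4, EGTA or 2 mM Ca2+; temperature set by perfusion, within ±2° C; no junction-potential correction.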

[3] = 1 mpk PO one hour prior to formalin, solution in 4% DMSO, 10% Solutol, 86% water
[4] = 3 mpk PO one hour prior to formalin, solution in 4% DMSO, 10% Solutol, 86% water
[5] = 10 mpk PO one hour prior to formalin, solution in 4% DMSO, 10% Solutol, 86% water
[6] = 30 mg/kg PO one hour prior to formalin, solution in 8% DMSO and 92% Labrasol
[7] = 1 mg/kg PO one hour prior to formalin, solution in 4% DMSO, 5% Tween-80, 20% Cremophor EL, 71% water
[8] = 3 mg/kg PO one hour prior to formalin, solution in 4% DMSO, 5% Tween-80, 20% Cremophor EL, 71% water
[9] = 10 mg/kg PO one hour prior to formalin, solution in 4% DMSO, 5% Tween-80, 20% Cremophor EL, 71% water
[10] = 30 mg/kg PO one hour prior to formalin, solution in 4% DMSO, 5% Tween-80, 20% Cremophor EL, 71% water

human TRPA1, sequence (O75762 whole entry, the tested form may be a part): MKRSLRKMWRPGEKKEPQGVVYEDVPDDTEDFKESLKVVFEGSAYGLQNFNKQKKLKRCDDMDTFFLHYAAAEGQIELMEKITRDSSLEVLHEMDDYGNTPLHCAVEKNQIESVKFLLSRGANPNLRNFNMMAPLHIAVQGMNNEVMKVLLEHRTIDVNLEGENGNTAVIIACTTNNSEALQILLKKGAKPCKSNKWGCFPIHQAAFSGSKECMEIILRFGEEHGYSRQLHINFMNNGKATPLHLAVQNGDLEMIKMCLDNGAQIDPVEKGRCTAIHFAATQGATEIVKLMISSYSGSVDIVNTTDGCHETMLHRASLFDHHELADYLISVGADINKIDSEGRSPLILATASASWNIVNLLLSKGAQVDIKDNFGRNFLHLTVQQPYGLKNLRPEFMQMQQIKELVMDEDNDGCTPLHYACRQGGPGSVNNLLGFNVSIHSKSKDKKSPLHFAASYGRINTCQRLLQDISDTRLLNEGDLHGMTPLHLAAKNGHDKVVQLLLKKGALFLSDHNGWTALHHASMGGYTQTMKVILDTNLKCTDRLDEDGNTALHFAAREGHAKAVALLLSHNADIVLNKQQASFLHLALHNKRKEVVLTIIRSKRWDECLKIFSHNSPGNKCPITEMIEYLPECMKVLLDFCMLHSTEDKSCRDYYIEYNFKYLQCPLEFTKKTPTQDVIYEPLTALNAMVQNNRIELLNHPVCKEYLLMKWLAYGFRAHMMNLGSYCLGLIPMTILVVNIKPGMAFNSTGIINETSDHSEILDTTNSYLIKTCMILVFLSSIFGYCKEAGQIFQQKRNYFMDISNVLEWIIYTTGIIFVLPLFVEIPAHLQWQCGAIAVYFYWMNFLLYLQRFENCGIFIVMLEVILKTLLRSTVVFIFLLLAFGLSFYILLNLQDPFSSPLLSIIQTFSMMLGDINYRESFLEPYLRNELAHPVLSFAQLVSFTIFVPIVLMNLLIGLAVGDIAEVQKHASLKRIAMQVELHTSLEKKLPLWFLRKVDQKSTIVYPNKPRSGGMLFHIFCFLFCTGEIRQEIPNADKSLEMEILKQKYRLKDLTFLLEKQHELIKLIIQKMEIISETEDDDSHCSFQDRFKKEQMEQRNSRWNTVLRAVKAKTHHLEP

Cc1cc(Cn2c(=O)c3c(ncn3[C@@H](C)C(=O)Nc3cccc(-c4ccc(C(F)(F)F)nc4)n3)n(C)c2=O)no1 [Compound 7, (S)-2-(3-methyl-1-((5-methylisoxazol-3-yl)methyl)-2,6-dioxo-2,3-dihydro-1H-purin-7(6H)-yl)-N-(6′-(trifluoromethyl)-[2,3′-bipyridin]-6-yl)propanamide]
Duration (0-2 Minutes) Average [1, 3]: 82.38 s | Duration (0-5 Minutes) Average [1, 3]: 200.38 s | Duration (0-2 Minutes) Average [1, 4]: 78.25 s | Duration (0-5 Minutes) Average [1, 4]: 173.75 s | Duration (0-2 Minutes) Average [1, 5]: 67.00 s | Duration (0-5 Minutes) Average [1, 5]: 170.50 s | IC50 [2]: 5 nM

Cc1cc(Cn2c(=O)c3c(ncn3[C@@H](C)C(=O)Nc3cccc(-c4cnc(C(F)(F)F)nc4)n3)n(C)c2=O)no1 [Compound 15, (S)-2-(3-methyl-1-((5-methylisoxazol-3-yl)methyl)-2,6-dioxo-2,3-dihydro-1H-purin-7(6H)-yl)-N-(6-(2-(trifluoromethyl)pyrimidin-5-yl)pyridin-2-yl)propanamide]
Duration (0-2 Minutes) Average [1, 6]: 76.00 s | Duration (0-5 Minutes) Average [1, 6]: 190.20 s

CCC(=O)Cn1c(=O)c2c(ncn2[C@@H](C)C(=O)Nc2cccc(-c3cnc(C)c(C(F)(F)F)c3)n2)n(C)c1=O [Compound 135, (S)-2-(3-methyl-2,6-dioxo-1-(2-oxobutyl)-2,3-dihydro-1H-purin-7(6H)-yl)-N-(6′-methyl-5′-(trifluoromethyl)-[2,3′-bipyridin]-6-yl)propanamide]
Duration (0-2 Minutes) Average [1, 7]: 91.1 s | Duration (0-5 Minutes) Average [1, 7]: 153.3 s | Duration (0-2 Minutes) Average [1, 8]: 80.3 s | Duration (0-5 Minutes) Average [1, 8]: 120.3 s | Duration (0-2 Minutes) Average [1, 9]: 74.3 s | Duration (0-5 Minutes) Average [1, 9]: 139.0 s | IC50 [2]: 4 nM

C[C@@H](C(=O)Nc1cncc(-c2cnc(N3CC4CC4C3)nc2)n1)n1cnc2c1c(=O)n(CC#N)c(=O)n2C (stereo partly drawn) [Compound 144]
Duration (0-2 Minutes) Average [1, 9]: 64.6 s | Duration (0-5 Minutes) Average [1, 9]: 181.3 s | IC50 [2]: 6 nM

C[C@@H](C(=O)Nc1cccc(-c2cnc(N3CC4CC4C3)nc2)n1)n1cnc2c1c(=O)n(CC#N)c(=O)n2C (stereo partly drawn) [Compound 149, (2S)—N-(6-(2-(3-azabicyclo[3.1.0]hexan-3-yl)pyrimidin-5-yl)pyridin-2-yl)-2-(1-(cyanomethyl)-3-methyl-2,6-dioxo-2,3-dihydro-1H-purin-7(6H)-yl)propanamide]
Duration (0-2 Minutes) Average [1, 10]: 41.9 s | Duration (0-5 Minutes) Average [1, 10]: 153.0 s | IC50 [2]: 2 nM

C[C@@H](C(=O)Nc1ccnc(-c2cnc(N3CC4CC4C3)nc2)n1)n1cnc2c1c(=O)n(CC#N)c(=O)n2C (stereo partly drawn) [Compound 155, (2S)—N-(2′-(3-azabicyclo[3.1.0]hexan-3-yl)-2,5′-bipyrimidin-4-yl)-2-(1-(cyanomethyl)-3-methyl-2,6-dioxo-2,3-dihydro-1H-purin-7(6H)-yl)propanamide]
Duration (0-2 Minutes) Average [1, 9]: 59.4 s | Duration (0-5 Minutes) Average [1, 9]: 182.5 s | IC50 [2]: 5 nM

Cc1nc(Cn2c(=O)c3c(ncn3[C@@H](C)C(=O)Nc3ccnc(-c4cnc(C)c(C(F)(F)F)c4)n3)n(C)c2=O)no1 [Compound 172, (S)-2-(3-methyl-1-((5-methyl-1,2,4-oxadiazol-3-yl)methyl)-2,6-dioxo-2,3-dihydro-1H-purin-7(6H)-yl)-N-(2-(6-methyl-5-(trifluoromethyl)pyridin-3-yl)pyrimidin-4-yl)propanamide]
Duration (0-2 Minutes) Average [1, 7]: 88.6 s | Duration (0-5 Minutes) Average [1, 7]: 151.0 s | Duration (0-2 Minutes) Average [1, 8]: 91.1 s | Duration (0-5 Minutes) Average [1, 8]: 149.0 s | Duration (0-2 Minutes) Average [1, 9]: 83.1 s | Duration (0-5 Minutes) Average [1, 9]: 151.6 s | IC50 [2]: 2 nM

Cc1nc(Cn2c(=O)c3c(ncn3CC(=O)Nc3csc(-c4cnc(C(F)(F)F)c(C)c4)n3)n(C)c2=O)no1 [Compound 253, 2-(3-methyl-1-((5-methyl-1,2,4-oxadiazol-3-yl)methyl)-2,6-dioxo-2,3-dihydro-1H-purin-7(6H)-yl)-N-(2-(5-methyl-6-(trifluoromethyl)pyridin-3-yl)thiazol-4-yl)acetamide]
Duration (0-2 Minutes) Average [1, 7]: 79.3 s | Duration (0-5 Minutes) Average [1, 7]: 126.4 s | Duration (0-2 Minutes) Average [1, 8]: 78.8 s | Duration (0-5 Minutes) Average [1, 8]: 119.6 s | Duration (0-2 Minutes) Average [1, 9]: 76.4 s | Duration (0-5 Minutes) Average [1, 9]: 116.0 s | IC50 [2]: 20 nM

COCC(=O)Cn1c(=O)c2c(ncn2[C@@H](C)C(=O)Nc2csc(-c3cnc(N4CC5C(C4)C5(F)F)nc3)n2)n(C)c1=O (stereo partly drawn) [Compound 265, (2S)—N-(2-(2-(6,6-difluoro-3-azabicyclo[3.1.0]hexan-3-yl)pyrimidin-5-yl)thiazol-4-yl)-2-(1-(3-methoxy-2-oxopropyl)-3-methyl-2,6-dioxo-2,3-dihydro-1H-purin-7(6H)-yl)propanamide]
IC50 [2]: 3 nM

COCC(=O)Cn1c(=O)c2c(ncn2[C@@H](C)C(=O)Nc2cccc(-c3cnc(N4CC5CC5C4)cn3)n2)n(C)c1=O (stereo partly drawn) [Compound 266, (2S)—N-(6-(5-(3-azabicyclo[3.1.0]hexan-3-yl)pyrazin-2-yl)pyridin-2-yl)-2-(1-(3-methoxy-2-oxopropyl)-3-methyl-2,6-dioxo-2,3-dihydro-1H-purin-7(6H)-yl)propanamide]
IC50 [2]: 7 nM

CC#CCn1c(=O)c2c(ncn2[C@@H](C)C(=O)Nc2csc(-c3cnc(N4CC5C(C4)C5(F)F)nc3)n2)n(C)c1=O (stereo partly drawn) [Compound 267, (2S)-2-(1-(but-2-ynyl)-3-methyl-2,6-dioxo-2,3-dihydro-1H-purin-7(6H)-yl)-N-(2-(2-(6,6-difluoro-3-azabicyclo[3.1.0]hexan-3-yl)pyrimidin-5-yl)thiazol-4-yl)propanamide]
IC50 [2]: 2 nM

CC#CCn1c(=O)c2c(ncn2[C@@H](C)C(=O)Nc2csc(-c3cnc(N4CCC[C@H]4C(F)(F)F)nc3)n2)n(C)c1=O [Compound 268, (S)-2-(1-(but-2-ynyl)-3-methyl-2,6-dioxo-2,3-dihydro-1H-purin-7(6H)-yl)-N-(2-(2-((S)-2-(trifluoromethyl)pyrrolidin-1-yl)pyrimidin-5-yl)thiazol-4-yl)propanamide]
IC50 [2]: 1 nM

COCC(=O)Cn1c(=O)c2c(ncn2[C@@H](C)C(=O)Nc2csc(-c3ccc(N4CC5C(C4)C5(F)F)nc3)n2)n(C)c1=O (stereo partly drawn) [Compound 269, (2S)—N-(2-(6-(6,6-difluoro-3-azabicyclo[3.1.0]hexan-3-yl)pyridin-3-yl)thiazol-4-yl)-2-(1-(3-methoxy-2-oxopropyl)-3-methyl-2,6-dioxo-2,3-dihydro-1H-purin-7(6H)-yl)propanamide]
IC50 [2]: 4 nM

CCC(=O)Cn1c(=O)c2c(ncn2[C@@H](C)C(=O)Nc2csc(-c3cnc(N4CC5CC5C4)cn3)n2)n(C)c1=O (stereo partly drawn) [Compound 270, (2S)—N-(2-(5-(3-azabicyclo[3.1.0]hexan-3-yl)pyrazin-2-yl)thiazol-4-yl)-2-(3-methyl-2,6-dioxo-1-(2-oxobutyl)-2,3-dihydro-1H-purin-7(6H)-yl)propanamide]
IC50 [2]: 3 nM

COCC(=O)Cn1c(=O)c2c(ncn2[C@@H](C)C(=O)Nc2cncc(-c3ccc(N4CC5CC5C4)nc3)n2)n(C)c1=O (stereo partly drawn) [Compound 271, (2S)—N-(6-(6-(3-azabicyclo[3.1.0]hexan-3-yl)pyridin-3-yl)pyrazin-2-yl)-2-(1-(3-methoxy-2-oxopropyl)-3-methyl-2,6-dioxo-2,3-dihydro-1H-purin-7(6H)-yl)propanamide]
IC50 [2]: 5 nM

COCC(=O)Cn1c(=O)c2c(ncn2[C@@H](C)C(=O)Nc2cccc(-c3cnc(N4CC5C(C4)C5(F)F)cn3)n2)n(C)c1=O (stereo partly drawn) [Compound 272]
IC50 [2]: 7 nM

(S)-2-(3-methyl-1-((3-methyl-1,2,4-oxadiazol-5-yl)methyl)-2,6-dioxo-2,3-dihydro-1H-purin-7(6H)-yl)-N-(5′-methyl-6′-(trifluoromethyl)-[2,3′-bipyridin]-6-yl)propanamide [Compound 134]
IC50 [2]: 3 nM
